Tested on: M. tuberculosis H37Rv
Type: cell-based, Mycobacterium tuberculosis
Conditions: for frequency of spontaneous resistance: M. tuberculosis H37Rv, 10× the MIC

SMILES | resistance range of mutants above the MIC level of the parental strain | frequency of spontaneous resistance | cross-resistance of mutants resistant to 44 and 52
COc1ccc(C(=O)Nc2nc(-c3ccccn3)cs2)cc1 [Compound 44] | 2–8 fold | ~ 10^−5 | –
O=C(Nc1nc(-c2ccccn2)cs1)c1cccc(Br)c1 [Compound 52] | 2–8 fold | ~ 10^−5 | –
CCc1cc(C(N)=S)ccn1 [ethionamide, reference compound] | – | – | not to be cross-resistant
